Test results from paper PMC6432638 (Science signaling, 2018).

Biological target: SMARCA4 (Homo sapiens, UniProt P51532)
Assay: TR-FRET ligand displacement assay with recombinant bromodomain and BET ligand
Assay type: binding
Conditions: read-out: % inhibition at 10 μM

SMARCA4, sequence (P51532 1453-1564 limits assumed): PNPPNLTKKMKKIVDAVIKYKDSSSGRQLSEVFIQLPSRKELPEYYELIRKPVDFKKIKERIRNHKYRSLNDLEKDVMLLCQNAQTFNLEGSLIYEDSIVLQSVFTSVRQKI

inhibition at 10 µM: 95%
Structure (SMILES): O=C(/C=C/N1C[C@H]2C[C@@H]1CN2c1ccccn1)c1ccccc1O [PFI-3]
